Measurements published in US20090318504A1, “Use of GAL3 receptor antagonists for the treatment of depression and/or anxiety and compounds useful in such methods” (priority 2001, published 2009).

How the values were obtained:
human GAL1 receptor = biological target: T1, human GAL1 receptor (Homo sapiens, UniProt P47211); assay: Radioligand binding at cloned human GAL1 receptor; conditions: pyrimidines, read-out: Ki GalR1
T1 construct: expressed in transfected cells; membranes
T1 sequence (P47211 1-349): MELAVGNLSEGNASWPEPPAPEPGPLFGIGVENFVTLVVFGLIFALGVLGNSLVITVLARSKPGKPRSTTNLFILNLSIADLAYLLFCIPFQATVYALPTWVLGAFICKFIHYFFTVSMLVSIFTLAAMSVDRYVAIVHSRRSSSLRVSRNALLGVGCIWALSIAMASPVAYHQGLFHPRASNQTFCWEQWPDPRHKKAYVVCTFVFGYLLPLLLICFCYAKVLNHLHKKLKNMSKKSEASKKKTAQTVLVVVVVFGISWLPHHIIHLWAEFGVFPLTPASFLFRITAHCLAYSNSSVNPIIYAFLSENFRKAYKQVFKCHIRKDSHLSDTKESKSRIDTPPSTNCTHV
From the text: (§1) In order to test compounds for selective binding to the human GAL3 receptor the cloned cDNAs encoding both the human and rat GALL and GAL2 receptors have been used. The cloning and assay methods for the human and rat GAL1 receptors may be found in PCT International Publication No. WO 95/22608, the contents of which are hereby incorporated by reference. The cloning and assay methods for the human and rat GAL2 receptors may be found in PCT International Publication No. WO 97/26853, the contents of which are hereby incorporated by reference.
(§2) The present invention provides for a method of determining the binding affinity of a GAL3 antagonist, wherein the GAL3 antagonist is dissolved in a “suitable solvent”. A “suitable solvent” means one which permits the measurement of binding affinity of the GAL3 antagonist to the human GAL3 receptor at concentrations less than 1 μM, preferably less than 100 nM. Examples of solvents include, but are not limited to, DMSO, ethanol, N,N-dimethylacetamide, or water. For indolones, the preferred solvent is 3% DMSO (final concentration in the assay). For pyrimidines, the preferred solvent is 1% ethanol/0.09% polypuronic acid F-127 (final concentration in the assay). For any other type of compounds, the preferred solvent is the solvent which permits the measurement of binding affinity of a GAL3 antagonist at the lowest concentration. Once a suitable solvent is ascertained for the binding assay of the human GAL3 receptor, the same solvent is used in assays to determine the binding affinity at the GAL1 receptor, the serotonin transporter, the norepinephrine transporter, and the dopamine transporter. A solvent of 0.4% DMSO is used in the central monoamine oxidase enzyme assay.
(§3) The binding properties of the pyrimidines of the present invention were evaluated at the cloned human galanin receptors, GAL1, GAL2, and GAL3, using protocols described herein.
(§4) The binding properties of the indolones of the present invention were evaluated at the cloned human galanin receptors, GAL1, GAL2, and GAL3, using protocols described herein.
(§5) LM(tk−) cells were stably transfected with the human GALL or GAL3 receptor. CHO cells were stably transfected with the human GAL2 receptor.
(§6) cDNAs for the human and rat GAL1, and human and rat GAL3 receptors were transfected with a G-418 resistant gene into the mouse fibroblast LM(tk−) cell line by a calcium phosphate transfection method (Cullen, 1987). Stably transfected cells were selected with G-418. Human and rat GAL2 receptors were similarly transfected into CHO cells.
Membranes were harvested from stably transfected LM(tk−) cells. […] Protein concentration was measured by the Bradford method (Bradford, 1976) using Bio-Rad Reagent, with bovine serum albumin as a standard. […]

human GAL3 receptor = biological target: T2, human GAL3 receptor (Homo sapiens, UniProt O60755); assay: Radioligand binding at cloned human GAL3 receptor; conditions: for Ki: pyrimidines, cloned human receptor, read-out: Ki GalR3
T2 construct: expressed in transfected cells; membranes
T2 sequence (O60755 1-368): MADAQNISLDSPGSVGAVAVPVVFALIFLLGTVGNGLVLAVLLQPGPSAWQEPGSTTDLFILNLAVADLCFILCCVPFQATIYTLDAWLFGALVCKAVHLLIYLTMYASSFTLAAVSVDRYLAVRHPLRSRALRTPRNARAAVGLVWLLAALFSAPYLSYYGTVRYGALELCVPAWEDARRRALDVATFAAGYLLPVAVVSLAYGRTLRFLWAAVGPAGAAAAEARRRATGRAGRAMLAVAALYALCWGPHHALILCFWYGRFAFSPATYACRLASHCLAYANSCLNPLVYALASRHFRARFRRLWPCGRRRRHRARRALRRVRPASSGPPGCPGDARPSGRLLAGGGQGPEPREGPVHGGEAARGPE
Protocol: as §2, §3, §4, §5, §6
(§7) Membranes were harvested from stably transfected LM(tk−) cells. Adherent cells were washed twice in ice-cold phosphate buffered saline (138 mM NaCl, 8.1 mM Na2HPO4, 2.5 mM KCl, 1.2 mM KH2PO4, 0.9 mM CaCl2, 0.5 mM MgCl2, pH 7.4) and lysed by sonication in ice-cold sonication buffer (20 mM Tris-HCl, 5 mM EDTA, pH 7.7). Large particles and debris were cleared by low speed centrifugation (200×g, 5 min, 4° C.). Membranes were collected from the supernatant fraction by centrifugation (32,000×g, 18 min, 4° C.), washed with ice-cold hypotonic buffer, and collected again by centrifugation (32,000×g, 18 min, 4° C.). The final membrane pellet was resuspended by sonication into a small volume of ice-cold binding buffer (~1 ml for every 5 plates: 10 mM NaCl, 20 mM HEPES, 0.22 mM KH2PO4, 1.26 mM CaCl2, 0.81 mM MgSO4, pH 7.4). Protein concentration was measured by the Bradford method (Bradford, 1976) using Bio-Rad Reagent, with bovine serum albumin as a standard. Membranes were held on ice for up to one hour and used fresh, or flash frozen and stored in liquid nitrogen. Membranes were prepared similarly from CHO cells.
Galanin Receptors Binding assays were performed according to the following published methods: human GAL3 (PCT International Publication No. WO 98/15570), human GAL1 (PCT International Publication No. WO 95/2260), human GAL2 (PCT International Publication No. WO 97/26853).
Binding data were analyzed using nonlinear regression and statistical techniques available in the GraphPAD Prism package (San Diego, Calif.). Enzymatic assay data were derived from a standard curve of reference compound data.
The selectivity ratios for compounds of the claimed invention were calculated from the binding data presented in Tables 1-4, Table 7 and Table 9 of the subject application. […]

human GAL2 receptor = biological target: T3, human GAL2 receptor (Homo sapiens, UniProt O43603); assay: Radioligand binding at cloned human GAL2 receptor; conditions: pyrimidines, read-out: Ki GalR2
T3 construct: expressed in transfected cells; membranes
T3 sequence (O43603 1-387): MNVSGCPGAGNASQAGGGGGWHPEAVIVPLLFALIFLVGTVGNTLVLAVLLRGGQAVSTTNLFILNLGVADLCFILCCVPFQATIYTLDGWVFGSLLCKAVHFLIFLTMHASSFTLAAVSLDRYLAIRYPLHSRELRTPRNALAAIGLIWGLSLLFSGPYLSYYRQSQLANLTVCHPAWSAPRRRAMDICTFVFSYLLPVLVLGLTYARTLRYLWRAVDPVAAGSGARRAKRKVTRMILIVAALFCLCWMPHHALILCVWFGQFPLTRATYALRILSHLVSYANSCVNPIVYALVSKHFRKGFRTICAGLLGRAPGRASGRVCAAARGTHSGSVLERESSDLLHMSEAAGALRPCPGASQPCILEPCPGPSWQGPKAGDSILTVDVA
From the text: as §1, §2, §3, §4, §5, §6
as §7, with “Membranes were held on ice for up to one hour and used fresh, or flash frozen and stored in liquid nitrogen. Membranes were prepared similarly from CHO cells.” left out

[1] = biological target: norepinephrine transporter (Rattus norvegicus, UniProt Q9WTR4); assay: Binding at native NE transporter; conditions: rNE Uptk
Protocol: The binding properties of the compounds of the present invention were evaluated at one or more cloned receptors or native, tissue-derived transporters, using protocols described below.
The methods to determine binding affinity at native transporters are described in the following publications: 5HT transporter and NE transporter (Owens et al., 1997), and DA transporter (Javitch et al, 1984).

male Sprague-Dawley rats [2] = assay: Rat Forced Swim Test (FST); type: in vivo; conditions: for Overall profile in the Forced Swim Test: conclusion of the study, male Sprague-Dawley rats
male Sprague-Dawley rats [3] = assay: Rat Social Interaction Test (SIT); type: in vivo
male Sprague-Dawley rats [4] = conditions: ex vivo data (Leonard, 1996); cited from earlier work
[5] = rat FST, single p.o. administration, 10 mg/kg, 1 hr before test, listed as Flu0x, 10 mg/kg

| Structure (SMILES) | Ki (human GAL3 receptor) [nM] | Ki (human GAL2 receptor) [nM] | Overall profile in the Forced Swim Test (male Sprague-Dawley rats [2]) | also measured |
| --- | --- | --- | --- | --- |
| Cc1ccc(N(c2ccc(C)cc2)c2cc(N3CCCCC3)nc(N)n2)cc1 [Example 4] | 627 | > 5000 | – | Ki (human GAL1 receptor): > 5000 nM |
| Cc1ccc(Nc2cc(N3CCCCC3)nc(N(C)CCc3c[nH]c4ccccc34)n2)cc1 [Example 11] | – | – | – | Ki [1]: > 50000 nM |
| CN(CCc1c[nH]c2ccccc12)c1nc(Nc2ccc(F)c(F)c2)cc(N2CCCCC2)n1 [Example 15] | – | – | – | Ki [1]: > 50000 nM |
| COCCN(c1ccc(C)cc1)c1cc(N2CCCCC2)nc(NCCc2c[nH]c3ccccc23)n1 [Example 19] | 79 | 1770 | – | Ki (human GAL1 receptor): > 5000 nM |
| Cc1ccc(Nc2cc(N3CCCCC3)nc(N(C)CCc3ccccc3)n2)cc1 [Example 22] | – | – | has antidepressant properties | Ki [1]: 13100 nM |
| Cc1ccc(Nc2cc(N3CCCCC3)nc(N3CCN(c4ncccc4C(F)(F)F)CC3)n2)cc1 [Example 34] | – | – | produces an effect in the FST that resembles that of antidepressants | Rearing (male Sprague-Dawley rats [3]; SIT, single p.o., 0.03 mg/kg): 27 ± 3; Overall profile in the Social Interaction Test (male Sprague-Dawley rats [3]; conclusion of the study, male rats): produces an anxioltyic action in the social interaction test; Ki [1]: > 50000 nM; GAL3/GAL1 binding ratio (Ki GAL1 divided by Ki GAL3) (human GAL3 receptor): 39 fold; Immobility (male Sprague-Dawley rats [2]; rat FST, single p.o. administration, 10 mg/kg, 1 hr before test, 10 mg/kg): not significantly decrease in immobility |
| CN(C)c1cc(N)nc(N(c2ccccc2)c2ccc(Cl)cc2)n1 [Example 58] | 783 | > 5000 | – | Ki (human GAL1 receptor): > 5000 nM |
| Cc1ccc(Nc2cc(N(C)C)nc(N3CCc4ccccc43)n2)cc1 [Example 75] | – | 245 | – | – |
| CN(C)c1cc(Nc2ccc3ccccc3c2)nc(N(C)CCc2c[nH]c3ccccc23)n1 [Example 79] | 190 | 1660 | – | Ki (human GAL1 receptor): 3800 nM |
| O=C1C(=Nc2ccc(C(F)(F)F)cc2)c2ccccc2N1c1ccccc1 [Example 95, 1-PHENYL-3-[[4-(TRIFLUOROMETHYL)PHENYL]IMINO]-1,3-DIHYDRO-2H-INDOL-2-ONE] | – | – | does not produce antidepressant-like actions in the forced swim test | – |
| O=C1C(=Nc2ccc(Br)cc2)c2ccccc2N1c1ccccc1 [Example 98, 3-[(4-BROMOPHENYL)IMINO]-1-PHENYL-1,3-DIHYDRO-2H-INDOL-2-ONE] | – | – | produces a profile in the modified Lucki version of the FST resembling that of the clinically established antidepressant fluoxetine | Climbing (male Sprague-Dawley rats [2]; rat FST, single p.o. administration, 3 mg/kg, 1 hr before test, 3 mg/kg): significantly greater increase in climbing compared to 30 mg/kg of Example 98 |
| O=C1C(=Nc2cc(Cl)cc(Cl)c2)c2ccccc2N1c1ccccc1 [Example 103, 3-[(3,5-DICHLOROPHENYL)IMINO]-1-PHENYL-1,3-DIHYDRO-2H-INDOL-2-ONE] | – | – | has antidepressant properties | – |
| CN(C)c1cc(Nc2ccc(Cl)c(Cl)c2)nc(N2CCN(Cc3ccccc3)CC2)n1 [Example 151] | – | – | produces behavioral effects in the FST in rats that resemble those of antidepressants | – |
| Cc1ccc(Nc2cc(N(C)C)nc(N3CCN(c4ncccc4C#N)CC3)n2)cc1 [Example 241] | 216 | – | – | – |
| O=C1/C(=N\c2ccc(Cl)c(Cl)c2)c2ccccc2N1c1ccsc1 [Example 272, (3Z)-3-[(3,4-DICHLOROPHENYL)IMINO]-1-(3-THIENYL)-1,3-DIHYDRO-2H-INDOL-2-ONE] | – | – | has the profile of an antidepressant | – |
| CNCCC(Oc1ccc(C(F)(F)F)cc1)c1ccccc1 (stereo not drawn) [Fluoxetine, fluoxetine, reference compound] | – | – | – | p.o. dose required to inhibit 5-HT uptake in the CNS by 50% (male Sprague-Dawley rats [4]): 7 mg/kg; Climbing (male Sprague-Dawley rats [2]; [5]): 4.5 ± 1.2 counts; Diving (male Sprague-Dawley rats [2]; [5]): 1.0 ± 0.8 counts |
